Values joined by “and” are separate entries in the source; they are usually repeats but may differ in a detail not shown here. Equal values may be shown once. Toxic doses and inconclusive results are not listed. How the source made its calls: active means survival T/C of 150% or more; inactive means T/C below 125% in these data.
Test system: P388 leukemia ip, CD2F1 mice, survival T/C
Experiment: NCI In Vivo Anticancer Drug Screen. Data for tumor model P388 Leukemia (intraperitoneal) in CD2F1 (CDF1) mice
Conditions: endpoint: median survival time, higher = longer survival
Summary of the method: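 Mice carrying the transplanted tumor received test compound or vehicle. Survival was recorded in each group, and the value is the treated-group measurement divided by that of the vehicle-treated control group.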

[1] = dose: 100.0 mg/kg/injection, schedule: Q01DX009 (ip), vehicle: Klucel (hydroxypropylcellulose) (HPC)
[2] = dose: 200.0 mg/kg/injection, schedule: Q01DX009 (ip), vehicle: Klucel (hydroxypropylcellulose) (HPC)
[3] = dose: 25.0 mg/kg/injection, schedule: Q01DX009 (ip), vehicle: saline with Tween-80
[4] = dose: 50.0 mg/kg/injection, schedule: Q01DX009 (ip), vehicle: saline with Tween-80
[5] = dose: 50.0 mg/kg/injection, schedule: Q01DX009 (ip), vehicle: Klucel (hydroxypropylcellulose) (HPC)
[6] = dose: 50.0 mg/kg/injection, schedule: Q01DX009 (ip), vehicle: saline
[7] = dose: 100.0 mg/kg/injection, schedule: Q01DX009 (ip), vehicle: saline
[8] = dose: 200.0 mg/kg/injection, schedule: Q01DX009 (ip), vehicle: saline
[9] = dose: 25.0 mg/kg/injection, schedule: Q01DX009 (ip), vehicle: saline

Measured: T/C

O=C(Cc1ccccn1)c1ccccc1
inactive: [1] 109 % of control | [2] 108 % of control | dose: 400.0 mg/kg/injection, schedule: Q01DX009 (ip), vehicle: Klucel (hydroxypropylcellulose) (HPC) 110 % of control

COn1nnc2c([N+](=O)[O-])cccc21
inactive: dose: 12.5 mg/kg/injection, schedule: Q01DX009 (ip), vehicle: saline with Tween-80 100 % of control | [3] 94 % of control | [4] 98 % of control

CC1(C)C(=O)C=CC2(C)C1CC(=O)C1(C)C2CCC2(C)C(c3ccoc3)OC(=O)C3OC321 (stereo unspecified)
inactive: dose: 1.5 mg/kg/injection, schedule: Q01DX009 (ip), vehicle: Klucel (hydroxypropylcellulose) (HPC) 98 % of control and 102 % of control | dose: 3.0 mg/kg/injection, schedule: Q01DX009 (ip), vehicle: Klucel (hydroxypropylcellulose) (HPC) 98 % of control and 102 % of control | dose: 6.0 mg/kg/injection, schedule: Q01DX009 (ip), vehicle: Klucel (hydroxypropylcellulose) (HPC) 91 % of control and 96 % of control | dose: 12.0 mg/kg/injection, schedule: Q01DX009 (ip), vehicle: Klucel (hydroxypropylcellulose) (HPC) 102 % of control and 96 % of control | dose: 24.0 mg/kg/injection, schedule: Q01DX009 (ip), vehicle: Klucel (hydroxypropylcellulose) (HPC) 100 % of control and 102 % of control

CCc1cc(COC(C)=O)on1
inactive: [5] 105 % of control | [1] 109 % of control | [2] 109 % of control

CC1=C2CC3CCC(C)C2(CC1)C3(C)C (stereo unspecified)
inactive: [6] 98 % of control | [7] 95 % of control | dose: 100.0 mg/kg/injection, schedule: Q04DX003 (ip), vehicle: saline 95 % of control | [8] 95 % of control | dose: 200.0 mg/kg/injection, schedule: Q04DX003 (ip), vehicle: saline 95 % of control | dose: 400.0 mg/kg/injection, schedule: Q04DX003 (ip), vehicle: saline 100 % of control

CCOC(OCC)C(N)=O
inactive: dose: 50.0 mg/kg/injection, schedule: Q01DX005 (ip), vehicle: saline with Tween-80 105 % of control | dose: 100.0 mg/kg/injection, schedule: Q01DX005 (ip), vehicle: saline with Tween-80 109 % of control | dose: 200.0 mg/kg/injection, schedule: Q01DX005 (ip), vehicle: saline with Tween-80 100 % of control

O=NN(CCCl)C(=O)OCC(Cl)(Cl)Cl
inactive: dose: 3.12 mg/kg/injection, schedule: Q01DX001 (ip), vehicle: saline with Tween-80 104 % of control | dose: 6.25 mg/kg/injection, schedule: Q01DX001 (ip), vehicle: saline with Tween-80 101 % of control | dose: 12.5 mg/kg/injection, schedule: Q01DX001 (ip), vehicle: saline with Tween-80 113 % of control | dose: 25.0 mg/kg/injection, schedule: Q01DX001 (ip), vehicle: saline with Tween-80 113 % of control and 117 % of control and 119 % of control | dose: 50.0 mg/kg/injection, schedule: Q01DX001 (ip), vehicle: saline with Tween-80 105 % of control and 120 % of control and 123 % of control | dose: 100.0 mg/kg/injection, schedule: Q01DX001 (ip), vehicle: saline with Tween-80 88 % of control

O=c1[nH]cc(CS)c(=O)[nH]1
inactive: dose: 12.5 mg/kg/injection, schedule: Q01DX009 (ip), vehicle: saline 102 % of control | [9] 108 % of control | [6] 100 % of control and 102 % of control | [7] 103 % of control

CSC(SC)(SC)C(=O)N(C)C
inactive: [3] 95 % of control | [4] 93 % of control | dose: 100.0 mg/kg/injection, schedule: Q01DX009 (ip), vehicle: saline with Tween-80 96 % of control

CCNc1cc2oc(=O)cc(C(F)(F)F)c2cc1C
inactive: dose: 50.0 mg/kg/injection, schedule: Q01DX005 (ip), vehicle: Klucel (hydroxypropylcellulose) (HPC) 97 % of control | dose: 100.0 mg/kg/injection, schedule: Q01DX005 (ip), vehicle: Klucel (hydroxypropylcellulose) (HPC) 100 % of control | dose: 200.0 mg/kg/injection, schedule: Q01DX005 (ip), vehicle: Klucel (hydroxypropylcellulose) (HPC) 99 % of control

CCOC(=O)CC1C(=O)N(c2nc(-c3ccc(Br)cc3)cs2)N=C1C (stereo unspecified)
inactive: [5] 96 % of control | [1] 101 % of control | [2] 103 % of control

CCOC(=O)Nc1cc(Cl)c([N+](=O)[O-])c([N+](=O)[O-])n1
inactive: dose: 100.0 mg/kg/injection, schedule: Q04DX002 (ip), vehicle: saline 101 % of control | dose: 200.0 mg/kg/injection, schedule: Q04DX002 (ip), vehicle: saline 103 % of control | dose: 400.0 mg/kg/injection, schedule: Q04DX002 (ip), vehicle: saline 110 % of control

CCCCCC/C(CC(SCC)c1ccccc1Cl)=N\NC(N)=O (stereo unspecified)
inactive: dose: 60.0 mg/kg/injection, schedule: Q01DX005 (ip), vehicle: saline + Tween-80 + alcohol 105 % of control | dose: 120.0 mg/kg/injection, schedule: Q01DX005 (ip), vehicle: saline + Tween-80 + alcohol 97 % of control | dose: 240.0 mg/kg/injection, schedule: Q01DX005 (ip), vehicle: saline + Tween-80 + alcohol 100 % of control

COc1cc(/C=C/c2ccc(N(C)C)cc2)oc(=O)c1
inactive: dose: 100.0 mg/kg/injection, schedule: Q04DX002 (ip), vehicle: Klucel (hydroxypropylcellulose) (HPC) 101 % of control | dose: 200.0 mg/kg/injection, schedule: Q04DX002 (ip), vehicle: Klucel (hydroxypropylcellulose) (HPC) 98 % of control | dose: 400.0 mg/kg/injection, schedule: Q04DX002 (ip), vehicle: Klucel (hydroxypropylcellulose) (HPC) 99 % of control

CC(=O)NCCCCCCNC(C)=O
inactive: [9] 100 % of control and 111 % of control and 97 % of control | dose: 31.0 mg/kg/injection, schedule: Q03HX008 (ip), vehicle: saline 101 % of control | dose: 41.7 mg/kg/injection, schedule: Q03HX024 (ip), vehicle: saline 105 % of control | [6] 100 % of control and 103 % of control and 119 % of control | dose: 62.5 mg/kg/injection, schedule: Q03HX008 (ip), vehicle: saline 103 % of control | dose: 83.0 mg/kg/injection, schedule: Q03HX024 (ip), vehicle: saline 107 % of control | [7] 103 % of control and 104 % of control | dose: 125.0 mg/kg/injection, schedule: Q03HX008 (ip), vehicle: saline 103 % of control | dose: 166.7 mg/kg/injection, schedule: Q03HX024 (ip), vehicle: saline 110 % of control | [8] 100 % of control and 105 % of control and 117 % of control | dose: 250.0 mg/kg/injection, schedule: Q01DX001 (ip), vehicle: saline 99 % of control | dose: 250.0 mg/kg/injection, schedule: Q03HX008 (ip), vehicle: saline 106 % of control | dose: 333.0 mg/kg/injection, schedule: Q03HX024 (ip), vehicle: saline 110 % of control | dose: 333.0 mg/kg/injection, schedule: Q04DX003 (ip), vehicle: saline 101 % of control | dose: 400.0 mg/kg/injection, schedule: Q01DX009 (ip), vehicle: saline 100 % of control and 105 % of control and 111 % of control | dose: 500.0 mg/kg/injection, schedule: Q01DX001 (ip), vehicle: saline 99 % of control | dose: 500.0 mg/kg/injection, schedule: Q03HX008 (ip), vehicle: saline 113 % of control | dose: 500.0 mg/kg/injection, schedule: Q03HX024 (ip), vehicle: saline 111 % of control | dose: 666.7 mg/kg/injection, schedule: Q04DX003 (ip), vehicle: saline 108 % of control | dose: 800.0 mg/kg/injection, schedule: Q01DX009 (ip), vehicle: saline 101 % of control and 108 % of control and 114 % of control | dose: 1000.0 mg/kg/injection, schedule: Q01DX001 (ip), vehicle: saline 101 % of control | dose: 1000.0 mg/kg/injection, schedule: Q03HX008 (ip), vehicle: saline 107 % of control | dose: 1333.0 mg/kg/injection, schedule: Q04DX003 (ip), vehicle: saline 106 % of control | dose: 2000.0 mg/kg/injection, schedule: Q01DX001 (ip), vehicle: saline 103 % of control | dose: 2666.0 mg/kg/injection, schedule: Q04DX003 (ip), vehicle: saline 105 % of control

Cc1c2c(c(O)c3c(O)cccc13)C(=O)C1(O)C(O)=C(C(=O)NCNc3ccc(C(N)=O)cn3)C(=O)C(N(C)C)C1C2 (stereo unspecified)
inactive: dose: 3.12 mg/kg/injection, schedule: Q01DX005 (ip), vehicle: saline 111 % of control | dose: 6.25 mg/kg/injection, schedule: Q01DX005 (ip), vehicle: saline 114 % of control and 117 % of control | dose: 12.5 mg/kg/injection, schedule: Q01DX005 (ip), vehicle: saline 114 % of control | dose: 25.0 mg/kg/injection, schedule: Q01DX005 (ip), vehicle: saline 120 % of control

CCCCCCCC/C=C\CCCCCCCCCCCC(=O)OC/C=C/COC(=O)c1ccccc1
inactive: [5] 100 % of control | [1] 95 % of control | [2] 100 % of control

COc1ccc2cc3cc[n+](C)cc3cc2c1OC
inactive: dose: 12.5 mg/kg/injection, schedule: Q01DX009 (ip), vehicle: water 114 % of control | dose: 25.0 mg/kg/injection, schedule: Q01DX009 (ip), vehicle: water 119 % of control

C[n+]1c(-c2cccc(-c3ccccc3)c2)c2cc(N)ccc2c2ccccc21
inactive: dose: 1.56 mg/kg/injection, schedule: Q01DX009 (ip), vehicle: other 124 % of control

— PubChem BioAssay AID330 (DTP/NCI, 2004)
